Source: the NIST ThermoML archive (doi:10.1021/je1009619)

How the values were obtained:
[1] = Liquid, Vibrating tube method
[2] = xn = mol fraction of the nth substance listed; conditions: Liquid, Vibrating tube method, x1 = 1

C=C(C)[C@H]1CC=C(C)CC1 [(R)-1-methyl-4-(1-methylethenyl)cyclohexene]
mass density [kg/m3], [1]
Conditions | 283.15 K | 298.15 K | 313.15 K | 328.15 K | 343.15 K | 358.15 K
20000 kPa | 862 | 851.5 | 841 | 830.5 | 820.1 | 810.2
25000 kPa | 864.9 | 854.5 | 844.2 | 833.8 | 823.7 | 813.9
30000 kPa | 867.7 | 857.6 | 847.2 | 837.2 | 827.3 | 817.6
35000 kPa | 870.4 | 860.9 | 850.3 | 840.4 | 831.1 | 821.3
40000 kPa | 873.3 | 863.4 | 853.3 | 843.8 | 834.6 | 824.8

C=C(C)[C@H]1CC=C(C)CC1 [(R)-1-methyl-4-(1-methylethenyl)cyclohexene] + CC1=CC[C@H]2C[C@@H]1C2(C)C
mass density [kg/m3], [2]
Conditions | 283.15 K | 298.15 K | 313.15 K | 328.15 K | 343.15 K | 358.15 K
20000 kPa | 862 | 851.5 | 841 | 830.5 | 820.1 | 810.2
25000 kPa | 864.9 | 854.5 | 844.2 | 833.8 | 823.7 | 813.9
30000 kPa | 867.7 | 857.6 | 847.2 | 837.2 | 827.3 | 817.6
35000 kPa | 870.4 | 860.9 | 850.3 | 840.4 | 831.1 | 821.3
40000 kPa | 873.3 | 863.4 | 853.3 | 843.8 | 834.6 | 824.8

CC1=CC[C@H]2C[C@@H]1C2(C)C [(S)-2-pinene]
mass density [kg/m3], [1]
Conditions | 283.15 K | 298.15 K | 313.15 K | 328.15 K | 343.15 K | 358.15 K
20000 kPa | 880 | 868.8 | 858 | 846.7 | 835.9 | 825
25000 kPa | 883.2 | 872.1 | 861.3 | 850.4 | 839.7 | 829.2
30000 kPa | 886.3 | 875.3 | 864.7 | 854 | 843.8 | 833.3
35000 kPa | 889.4 | 878.6 | 867.9 | 857.5 | 847.7 | 837.4
40000 kPa | 892.5 | 881.9 | 871.3 | 861.1 | 851.4 | 841.5
